Each block holds one molecule with its values, some of them ahead of it. Active and inactive are the calls of the source.
What was measured:
SN12K1 = experiment: cells; type: functional; settings: Homo sapiens
P388/ADR = experiment: cells; type: functional; settings: Mus musculus
P388 = experiment: cells; type: functional; settings: Mus musculus
[1] = target: Glyceraldehyde-3-phosphate dehydrogenase (Homo sapiens, UniProt P04406)
[2] = target: FAD-linked sulfhydryl oxidase ALR (Homo sapiens, UniProt P55789); experiment: inhibitors of human ALR sulfhydryl oxidase, dose response, biochemical, H2O2 detection, luminescence, cherry-pick (AID 493248)
Large T antigen = Large T antigen (Simian virus 40, UniProt P03070); type: functional, Betapolyomavirus macacae;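 note: Confirmatory-stage PubChem screen for compounds that inhibit SV40 T antigen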
[3] = target: T1, Rac GTPase-activating protein 1 (Homo sapiens, UniProt Q9H0H5); experiment: MgcRacGAP GTPase-activating activity inhibitors, confirmation, biochemical, ADP Hunter fluorescence, primary and confirmatory (AID 624330); type: functional
T1 sequence (Q9H0H5 whole entry): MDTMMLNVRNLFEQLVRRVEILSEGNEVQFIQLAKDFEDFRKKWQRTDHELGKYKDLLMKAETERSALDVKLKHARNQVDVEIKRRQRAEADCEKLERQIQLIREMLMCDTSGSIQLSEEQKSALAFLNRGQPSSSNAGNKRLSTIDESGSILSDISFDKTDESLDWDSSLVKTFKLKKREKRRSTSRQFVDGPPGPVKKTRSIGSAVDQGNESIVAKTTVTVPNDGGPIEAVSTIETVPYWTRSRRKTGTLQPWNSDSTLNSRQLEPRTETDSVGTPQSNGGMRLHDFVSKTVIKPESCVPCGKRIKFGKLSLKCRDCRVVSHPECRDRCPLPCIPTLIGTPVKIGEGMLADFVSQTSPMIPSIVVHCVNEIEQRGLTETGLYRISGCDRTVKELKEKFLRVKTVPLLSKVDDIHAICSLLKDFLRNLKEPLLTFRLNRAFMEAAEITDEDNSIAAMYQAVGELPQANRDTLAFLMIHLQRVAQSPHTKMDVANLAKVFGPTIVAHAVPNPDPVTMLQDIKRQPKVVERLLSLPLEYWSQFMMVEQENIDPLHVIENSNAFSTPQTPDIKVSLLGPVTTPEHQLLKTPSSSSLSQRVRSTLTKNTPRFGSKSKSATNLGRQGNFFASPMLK

[4] = target: T2, Heat shock factor protein 1 (Mus musculus, UniProt P38532); experiment: HSF1 potentiators in luciferase reporter cells, confirmation, cell-based, NIH3T3, luminescence, dose retest (AID 435004); type: functional;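 note: stress induced by proteasome inhibitor MG132 added 30 min after compound; luciferase reporter driven by HSF1 response element in NIH3T3 cells; actives raise luminescence as potentiators of the MG132 stress response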
T2 sequence (P38532 whole entry): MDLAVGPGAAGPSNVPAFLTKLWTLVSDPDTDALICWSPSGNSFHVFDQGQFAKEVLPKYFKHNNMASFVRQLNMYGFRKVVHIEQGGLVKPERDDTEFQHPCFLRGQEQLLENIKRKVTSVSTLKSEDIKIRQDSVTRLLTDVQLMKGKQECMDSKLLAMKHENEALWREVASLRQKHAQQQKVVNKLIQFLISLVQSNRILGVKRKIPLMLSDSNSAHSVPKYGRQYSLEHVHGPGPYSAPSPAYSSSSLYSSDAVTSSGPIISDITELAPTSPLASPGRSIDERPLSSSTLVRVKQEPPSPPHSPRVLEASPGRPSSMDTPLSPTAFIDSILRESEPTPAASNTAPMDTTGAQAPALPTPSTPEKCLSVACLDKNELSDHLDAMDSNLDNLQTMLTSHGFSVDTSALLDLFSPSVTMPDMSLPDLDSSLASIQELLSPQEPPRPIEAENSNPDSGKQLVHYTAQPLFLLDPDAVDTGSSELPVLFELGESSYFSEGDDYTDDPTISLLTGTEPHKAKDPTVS

H9c2 = experiment: cells; type: functional, cell-based; settings: Rattus norvegicus, H9c2, Myocardium;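 note: confirmatory concentration-response retest of ultra-high-throughput screening hits for modulation of myocardial damage; cell death induced by hydrogen peroxide oxidative stress; compound pretreatment for 60 min then peroxide exposure for 2 h; potency is for protecting the cells against peroxide damage rather than for killing them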
[5] = P. falciparum Dd2 growth inhibitors, dose response, SYBR Green, cherry-picked samples (AID 1159567); type: functional, cell-based
[6] = P. falciparum ATP4 D1247Y mutant growth inhibitors, dose response, NITD609-resistant line, SYBR Green, dry powder (AID 1159571); type: functional, cell-based;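 note: parasites synchronized at ring stage by sorbitol before testing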
[7] = P. falciparum 3D7-ScDHODH growth inhibitors, dose response, SYBR Green, dry powder samples (AID 1159570); type: functional, cell-based;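 note: parasite growth measured after 72 hours of compound exposure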
[8] = P. falciparum Dd2 growth inhibitors, dose response, SYBR Green, dry powder samples (AID 1159566); type: functional, cell-based;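 note: potency for growth inhibition with lower SYBR green DNA signal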
[9] = HEp-2 cell cytotoxicity, dose response, cytotoxicity control for RSV inhibitor project, HTS (AID 2410); type: functional; settings: human respiratory syncytial virus
Leucine aminopeptidase = target: T3, Leucine aminopeptidase (Plasmodium falciparum 3D7, UniProt Q8IL11); experiment: P. falciparum M17LAP inhibitors, primary screen, biochemical, fluorogenic H-Leu-NHMec substrate, 1536-well (AID 1619); type: functional
T3 sequence (Q8IL11 whole entry): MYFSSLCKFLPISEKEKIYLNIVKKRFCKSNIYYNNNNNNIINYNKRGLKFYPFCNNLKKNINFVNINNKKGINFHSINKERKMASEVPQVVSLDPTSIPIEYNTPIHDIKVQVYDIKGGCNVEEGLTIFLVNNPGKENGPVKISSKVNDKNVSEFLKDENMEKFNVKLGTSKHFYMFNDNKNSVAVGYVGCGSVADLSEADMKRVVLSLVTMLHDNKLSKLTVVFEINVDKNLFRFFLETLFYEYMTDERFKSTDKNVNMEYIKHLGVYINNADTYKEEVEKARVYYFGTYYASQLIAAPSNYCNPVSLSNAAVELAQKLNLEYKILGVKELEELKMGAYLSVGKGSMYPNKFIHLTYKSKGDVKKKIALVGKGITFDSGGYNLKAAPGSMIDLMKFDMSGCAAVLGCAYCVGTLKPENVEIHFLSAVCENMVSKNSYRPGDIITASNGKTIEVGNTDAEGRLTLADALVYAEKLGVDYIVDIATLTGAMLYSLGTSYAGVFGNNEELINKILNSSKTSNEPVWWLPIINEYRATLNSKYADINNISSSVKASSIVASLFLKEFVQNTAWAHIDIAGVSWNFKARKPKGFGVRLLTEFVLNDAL

Cytochrome P450 2D6 = Cytochrome P450 2D6 (Homo sapiens, UniProt P10635);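 note: CYP2D6 member of a cytochrome P450 panel assay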
[10] = target: T4, Carboxy-terminal domain RNA polymerase II polypeptide A small phosphatase 1 (Homo sapiens, UniProt Q9GZU7); experiment: inhibitors of CTDSP1, concentration-response testing, biochemical assay, absorbance-based, actives from ultra-high-throughput screening (AID 540297); type: functional
T4 sequence (Q9GZU7 whole entry): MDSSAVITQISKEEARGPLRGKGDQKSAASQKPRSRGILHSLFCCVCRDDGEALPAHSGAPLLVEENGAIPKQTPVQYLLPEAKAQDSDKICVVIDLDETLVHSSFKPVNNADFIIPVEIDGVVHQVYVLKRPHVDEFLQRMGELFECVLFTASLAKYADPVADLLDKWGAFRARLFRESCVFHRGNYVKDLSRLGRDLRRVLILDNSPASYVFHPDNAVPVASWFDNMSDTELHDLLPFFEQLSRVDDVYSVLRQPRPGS

Vero = Vero cell cytotoxicity, cytotoxicity control for flavivirus capping enzyme inhibitors (AID 588742); type: functional; settings: Chlorocebus sabaeus
[11] = target: T5, Mannose-6-phosphate isomerase (Homo sapiens, UniProt P34949); experiment: human PMI inhibitors, high substrate, primary screen, biochemical, fluorescence intensity, high mannose 6-phosphate (AID 1220)
T5 sequence (P34949 whole entry): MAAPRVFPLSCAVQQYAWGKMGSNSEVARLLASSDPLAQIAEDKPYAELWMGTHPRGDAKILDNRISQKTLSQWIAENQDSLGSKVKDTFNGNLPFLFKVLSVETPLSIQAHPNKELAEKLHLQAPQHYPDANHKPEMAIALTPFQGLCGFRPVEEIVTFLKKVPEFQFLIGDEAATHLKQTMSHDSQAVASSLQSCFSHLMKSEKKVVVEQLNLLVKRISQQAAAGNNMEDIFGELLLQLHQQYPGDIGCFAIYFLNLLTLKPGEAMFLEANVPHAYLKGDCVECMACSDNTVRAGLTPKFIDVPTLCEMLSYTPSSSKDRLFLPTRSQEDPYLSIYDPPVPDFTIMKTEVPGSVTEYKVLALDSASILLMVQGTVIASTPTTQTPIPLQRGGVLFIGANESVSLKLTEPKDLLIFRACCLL

Large T antigen, sequence (P03070 whole entry): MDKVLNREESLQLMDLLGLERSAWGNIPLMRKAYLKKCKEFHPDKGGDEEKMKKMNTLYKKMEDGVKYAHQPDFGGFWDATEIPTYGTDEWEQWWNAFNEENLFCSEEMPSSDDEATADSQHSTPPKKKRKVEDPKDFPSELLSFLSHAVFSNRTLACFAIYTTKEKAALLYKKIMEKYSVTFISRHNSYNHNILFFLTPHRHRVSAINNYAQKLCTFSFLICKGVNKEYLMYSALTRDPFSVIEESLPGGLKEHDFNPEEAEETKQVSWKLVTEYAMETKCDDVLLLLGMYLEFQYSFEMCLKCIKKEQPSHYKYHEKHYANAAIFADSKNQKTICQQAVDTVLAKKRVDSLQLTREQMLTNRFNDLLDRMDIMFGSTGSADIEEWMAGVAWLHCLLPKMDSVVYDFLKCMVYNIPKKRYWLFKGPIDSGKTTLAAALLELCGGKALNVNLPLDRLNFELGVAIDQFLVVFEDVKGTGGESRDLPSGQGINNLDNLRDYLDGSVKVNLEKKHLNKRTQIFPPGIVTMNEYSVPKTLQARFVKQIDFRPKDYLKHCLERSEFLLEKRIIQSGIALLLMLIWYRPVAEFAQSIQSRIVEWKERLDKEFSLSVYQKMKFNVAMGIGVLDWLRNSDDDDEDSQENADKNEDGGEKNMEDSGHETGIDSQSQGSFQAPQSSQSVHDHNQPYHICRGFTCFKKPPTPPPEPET
Glyceraldehyde-3-phosphate dehydrogenase, sequence (P04406 whole entry): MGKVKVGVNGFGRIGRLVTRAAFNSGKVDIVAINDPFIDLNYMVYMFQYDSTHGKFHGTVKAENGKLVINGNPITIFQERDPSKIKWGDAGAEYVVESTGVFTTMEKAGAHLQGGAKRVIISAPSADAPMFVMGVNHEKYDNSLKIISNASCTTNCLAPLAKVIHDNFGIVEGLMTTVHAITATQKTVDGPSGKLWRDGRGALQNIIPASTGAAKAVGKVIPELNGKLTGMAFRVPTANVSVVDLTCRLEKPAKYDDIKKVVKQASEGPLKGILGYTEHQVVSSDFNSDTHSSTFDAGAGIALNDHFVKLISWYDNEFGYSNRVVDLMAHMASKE
FAD-linked sulfhydryl oxidase ALR, sequence (P55789 whole entry): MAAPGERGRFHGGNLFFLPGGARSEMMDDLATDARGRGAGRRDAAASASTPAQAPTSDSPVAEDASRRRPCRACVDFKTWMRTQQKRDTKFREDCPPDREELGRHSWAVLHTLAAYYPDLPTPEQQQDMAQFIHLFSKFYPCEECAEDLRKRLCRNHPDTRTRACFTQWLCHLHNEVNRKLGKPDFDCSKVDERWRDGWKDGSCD
Cytochrome P450 2D6, sequence (P10635 whole entry, the tested form may be a part): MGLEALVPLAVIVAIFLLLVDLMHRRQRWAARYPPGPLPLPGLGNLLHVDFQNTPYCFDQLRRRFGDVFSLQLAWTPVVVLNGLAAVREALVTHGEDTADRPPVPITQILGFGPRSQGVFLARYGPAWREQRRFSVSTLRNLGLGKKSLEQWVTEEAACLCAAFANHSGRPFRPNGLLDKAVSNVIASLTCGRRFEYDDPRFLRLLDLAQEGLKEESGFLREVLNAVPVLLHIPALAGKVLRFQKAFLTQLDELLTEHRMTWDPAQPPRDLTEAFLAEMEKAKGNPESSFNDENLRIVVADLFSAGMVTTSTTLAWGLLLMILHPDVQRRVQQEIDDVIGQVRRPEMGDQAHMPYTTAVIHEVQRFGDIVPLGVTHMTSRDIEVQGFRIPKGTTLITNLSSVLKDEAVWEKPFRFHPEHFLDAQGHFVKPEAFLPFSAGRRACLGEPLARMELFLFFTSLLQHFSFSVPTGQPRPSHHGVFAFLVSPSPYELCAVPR

SMILES: COC(=O)[C@@H]1c2cc3c(c(O)c2[C@@H](OC)C[C@@]1(C)O)C(=O)c1c(O)cc2c(c1C3=O)OC1O[C@@]2(C)[C@H](O)[C@@H](N(C)C)[C@@H]1O
GI50 (SN12K1): 0.352 µM (active) | GI50 (P388/ADR): 1.29 µM (inactive) | GI50 (P388): 0.092 µM (active)

IC50 [1]: > 100 µM (not active)
SMILES: CCOc1ccc(Cl)cc1S(=O)(=O)Nc1cccnc1

AC50 [2]: 0.108 µM (active) | IC50 (Large T antigen): > 100 µM (active) | IC50 [3]: 30.8 µM (active)
SMILES: Cc1cc(NS(=O)(=O)c2ccc(Nc3nc(-c4ccc(O)cc4)cs3)cc2)no1

SMILES: Cc1cc(C)n2nc(C(=O)N/N=C/c3c4ccccc4cc4ccccc34)nc2n1
EC50 [4]: > 260 µM (inactive) | IC50 (H9c2): > 79 µM (inactive)

SMILES: C[C@H]1[C@@H]2C[C@@H]3O[C@@]34[C@H]3CCC5Cc6nc7c(nc6C[C@@]5(C)[C@]3(O)CC(=O)[C@@]24CO[C@]12OC(C)(C)C[C@@H]2O)CC1CC[C@@H]2C3=C[C@H]4O[C@@]5(OC(C)(CO)C[C@@H]5O)[C@H](C)[C@@]4(O)[C@]3(C)[C@@H](O)CC2[C@]1(C)C7 (some centres not stated)
GI50 (SN12K1): 0.00221 µM (active) | GI50 (P388/ADR): 0.0718 µM (active) | GI50 (P388): 0.0017 µM (active)

SMILES: CCCC#Cc1ccc2c(c1)O[C@H](CN(C)C(=O)Nc1ccc(OC)cc1)[C@H](C)CN([C@H](C)CO)S2(=O)=O
AC50 [5]: 1.94 µM (active) | AC50 [6]: 1.45 µM (active) | AC50 [7]: 1.37 µM (active) | AC50 [8]: 1.82 µM (active)

SMILES: COc1ccc(Cl)cc1NC(=O)CCS(=O)(=O)c1cc2c(cc1C)NC(=O)CO2
IC50 (H9c2): > 79 µM (inactive)

IC50 [1]: > 50 µM (inconclusive)
SMILES: COc1ccc(N2CCN(C3=C(Cl)C(=O)N(c4ccc(Cl)nc4)C3=O)CC2)cc1

SMILES: c1cncc(-c2nc(NCC3COc4ccccc4O3)c3ccccc3n2)c1 (configuration not stated)
CC50 [9]: 10.2 µM (active) | IC50 (H9c2): > 79 µM (inactive)

SMILES: O=C(Nc1ccc(C2=NCCN2)cc1)c1cncc(C(=O)Nc2ccc(C3=NCCN3)cc2)c1
GI50 (SN12K1): > 100 µM (inactive) | GI50 (P388/ADR): > 100 µM (inactive) | GI50 (P388): 24.2 µM (inactive)

SMILES: COc1ccc(C(=O)O/N=C(/c2ccccc2)c2ccncc2)cc1OC
IC50 (H9c2): 6.72 µM (active)

IC50 (Leucine aminopeptidase): 34.1 µM (active)
SMILES: O=C(O)c1cccc(Cn2c(Cl)c(/C=N/NC(=O)c3ccccc3Cl)sc2=O)c1

SMILES: CC(C)NC(=O)N1[C@@H](CO)[C@@H](c2ccccc2)C12CN(Cc1ccc(F)cc1)C2
AC50 [5]: 3.25 µM (active) | AC50 [6]: 2.17 µM (active) | AC50 [7]: 4 µM (active) | AC50 [8]: 1.95 µM (active)

AC50 (Cytochrome P450 2D6): 39.8 µM (inconclusive) | IC50 (Large T antigen): 1.93 µM (active)
SMILES: O=C(O)C1=CC(=C(c2ccc(O)c(C(=O)O)c2)c2ccc(O)c(C(=O)O)c2)C=CC1=O [AURINTRICARBOXYLIC ACID]

SMILES: Cn1c2ccccc2c(=O)c2c(O)cc3c(c21)C=CC(C)(C)O3 [NORACRONYCINE]
GI50 (SN12K1): > 25 µM (inactive) | GI50 (P388/ADR): > 25 µM (inactive) | GI50 (P388): > 25 µM (inactive)

SMILES: COc1ccccc1S(=O)(=O)N(C)C[C@H]1OCc2ccccc2-c2c(n(C)c3ccccc23)C(=O)N([C@@H](C)CO)C[C@@H]1C
AC50 [5]: 2.1 µM (active) | AC50 [6]: 1.02 µM (active) | AC50 [7]: 2.03 µM (active) | AC50 [8]: 1.09 µM (active)

SMILES: CCC1CN2CCC1CC2 (configuration not stated)
GI50 (SN12K1): > 100 µM (inactive) | GI50 (P388/ADR): > 100 µM (inactive) | GI50 (P388): 80.4 µM (inactive)

IC50 [1]: > 50 µM (inconclusive)
SMILES: Cc1ccc(N2C(=O)C(Cl)=C(N3CCN(c4ccccc4)CC3)C2=O)cc1

SMILES: O=C(CN1CCN(Cc2ccccc2)CC1)Nc1ccc([N+](=O)[O-])cc1C(=O)Nc1ccccc1F
IC50 (H9c2): > 79 µM (inactive)

IC50 (Leucine aminopeptidase): 11.5 µM (active)
SMILES: S=c1[nH]c(-c2ccccc2)nn1-c1ccccc1

SMILES: O=C(O)CCCCCCCCC(=O)O [SEBACIC ACID]
GI50 (SN12K1): > 500 µM (inactive) | GI50 (P388/ADR): > 500 µM (inactive) | GI50 (P388): 316 µM (inactive)

SMILES: C[C@@H]1CN([C@@H](C)CO)C(=O)c2cccc(NC(=O)c3nc4ccccc4s3)c2O[C@H]1CN(C)C(=O)Nc1ccc2c(c1)OCO2
AC50 [5]: 2.35 µM (active) | AC50 [6]: 1.18 µM (active) | AC50 [7]: 0.985 µM (active) | AC50 [8]: 1.37 µM (active)

SMILES: C[C@H](CCC(=O)O)[C@H]1CC[C@H]2[C@@H]3CC[C@@H]4C[C@H](O)CC[C@]4(C)[C@H]3CC[C@]12C [LITHOCHOLIC ACID]
IC50 [10]: 4.82 µM (active) | IC50 (Large T antigen): 26.1 µM (active)

SMILES: O=C(C1CCCC1)N1CC(=O)N2[C@H](CO)[C@H](c3ccc(-c4cccnc4)cc3)[C@H]2C1
AC50 [5]: 1.47 µM (active) | AC50 [6]: 1.85 µM (active) | AC50 [7]: 2.33 µM (active) | AC50 [8]: 1.11 µM (active)

IC50 [11]: > 50 µM (not active) | IC50 [3]: 20 µM (active)
SMILES: COc1ccc2c(c1)-c1nc(/N=C/c3ccccc3O)sc1CC2
CC50 (Vero): > 40 µM (active)

SMILES: O=C(/C=C/c1ccc(Cl)c([N+](=O)[O-])c1)Nc1cccnc1
IC50 (H9c2): > 79 µM (inactive)

IC50 (Leucine aminopeptidase): 13.9 µM (active)
SMILES: CCOC(=O)COc1ncn(-c2ccccc2)n1
